Test results: patent US10100076B2, “Modified nucleosides for the treatment of viral infections and abnormal cellular proliferation” (priority 2000, dated 2018)

Experiments:
CEM cells = assay: cells; type: cell-based, human; settings: for % inhibition at 100 μM, CEM Cells: four day incubation, MTT
Method: (§1) The cytotoxicity testing as performed herein is a standard technique. Briefly, cells are seeded in 96-well plates at various concentrations (dependent on cell type, duration of assay), typically at 5×10^3 cells per well, in the presence of increasing concentrations of the test compound (0, 1, 3, 10, 33, and 100 μM). After three (Vero cells), or four (CEM cells), or five (PBM cells) day-incubation, cell viability and mitochondrial activity are measured by adding the MTT-dye (Promega), followed by a 8 hours incubation. Afterwards the plates containing the dye are fixed by adding a stop-solution followed by another eight hour incubation. Finally, absorbance is read at 570 nm. Such methodologies are well described and available from the manufacturer (Promega).

PBM cells = assay: cells; type: cell-based, human; settings: for % inhibition at 100 μM, PBM cells: five day incubation, MTT
Method: as §1

Vero cells = assay: cells; type: cell-based; settings: for % inhibition at 100 μM, Vero Cells: three day incubation, MTT
Method: as §1

HCV replicon = HCV replicon system in Huh7 cells, replicon RNA by Q-RT-PCR (HCV ΔCt, ΔΔCt); type: cell-based, hepatitis C virus; settings: for Ave. ΔΔCt: HCV RNA ΔCt minus rRNA ΔCt; for Ave. HCV RNA ΔCt: HCV replicon in Huh7 cells; for average ΔΔCt: HCV RNA ΔCt minus rDNA ΔCt
[1] = tested on: rRNA (host RNA polymerase I product); assay: rRNA ΔCt in Huh7 replicon cells (effect on host RNA polymerases); settings: Table 24, average of n
From the text: In a typical setting, a compound might reduce both the host RNA polymerase activity and the replicon-encoded polymerase activity. Therefore, quantification of rRNA (or any other host RNA polymerase I product) or beta-actin mRNA (or any other host RNA polymerase II) and comparison with RNA levels of the no-drug control is a relative measurement of the effect of the test compound on host RNA polymerases.
With the availability of both the HCV ΔCt data and the rRNA ΔCt, a specificity parameter can be introduced. This parameter is obtained by subtracting both ΔCt values from each other.

rDNA (host DNA) = assay: rDNA ΔCt in Huh7 replicon cells (effect on cellular DNA polymerases); settings: Table 25, average of N
From the text: In another typical setting, a compound might reduce the host RNA polymerase activity, but not the host DNA polymerase activity. Therefore, quantification of rDNA or beta-actin DNA (or any other host DNA fragment) and comparison with DNA levels of the no-drug control is a relative measurement of the inhibitory effect of the test compound on cellular DNA polymerases.
With the availability of both the HCV ΔCt data and the rDNA ΔCt, a specificity parameter can be introduced. This parameter is obtained by subtracting both ΔCt values from each other.

SMILES	IC50 (CEM cells)	% inhibition at 100 μM, CEM Cells (CEM cells)	IC50 (PBM cells)	% inhibition at 100 μM, PBM cells (PBM cells)	IC50 (Vero cells)	% inhibition at 100 μM, Vero Cells (Vero cells)	Ave. ΔΔCt (HCV replicon; Table 24)	Ave. HCV RNA ΔCt (HCV replicon; Table 24, average of n)	average ΔΔCt (HCV replicon; Table 25)	Ave. HCV RNA ΔCt (HCV replicon; Table 25, average of N)	Ave. rRNA ΔCt [1]	Ave. rDNA ΔCt (rDNA (host DNA))
O=c1[nH]c(=O)n([C@@H]2C[C@H](CO)[C@@H](O)[C@H]2O)cc1F [β-D-GF]	> 100 µM	11.2%	> 100 µM	−46.2%	> 100 µM	4.3%	–	–	–	–	–	–
Nc1nc(=O)c([C@@H]2O[C@H](CO)[C@@H](O)[C@H]2O)c[nH]1 [β-D-RB]	–	–	–	–	–	–	1.12	4.30	2.74	4.00	3.18	1.27
N=c1nc2c(c[nH]1)[C@@H]1O[C@H](CO)[C@@H](O)[C@@H]1O2 [β-D-TA]	–	–	–	–	–	–	0.69	4.00	0.93	4.00	3.31	3.07
Nc1ncnc2c([C@@H]3O[C@H](CO)[C@@H](O)[C@H]3O)cnn12 [β-D-UA]	–	–	–	–	–	–	1.3	2.91	2.41	2.91	1.61	0.50
Nc1nc(F)nc2c1ncn2[C@@H]1C=C[C@H](CO)O1 [β-L-FC]	–	–	–	–	–	–	0.42	5.55	3.41	4.41	5.13	1.00
Nc1nc(=O)n([C@H]2C[C@@H](CO)[C@H](O)[C@@H]2O)cc1F [β-L-GA]	> 100 µM	1.1%	> 100 µM	−113.2%	> 100 µM	27.9%	–	–	–	–	–	–
O=c1ccn([C@@H]2CC[C@H](CO)C2)c(=O)[nH]1 [β-L-GC]	> 100 µM	−1.2%	> 100 µM	−53.2%	> 100 µM	−13.4%	–	–	–	–	–	–
Nc1ccn([C@H]2C[C@@H](CO)[C@H](O)[C@@H]2O)c(=O)n1 [β-L-GD]	> 100 µM	−79.7%	> 100 µM	−12.9%	> 100 µM	0.8%	–	–	–	–	–	–
Nc1ccn(C2CCC(CO)C2)c(=O)n1 [β-L-GE]	> 100 µM	0.0%	> 100 µM	−59.7%	> 100 µM	10.6%	–	–	–	–	–	–
O=c1[nH]c(=O)n([C@H]2C[C@@H](CO)[C@H](O)[C@@H]2O)cc1F [β-L-GF]	> 100 µM	35.1%	> 100 µM	−70.4%	> 100 µM	33.8%	–	–	–	–	–	–
Nc1nc(=O)n([C@@H]2CC[C@H](CO)C2)cc1I [β-L-GG]	> 100 µM	17.3%	> 100 µM	−34.6%	> 100 µM	33.6%	–	–	–	–	–	–
Nc1nc(=O)n([C@H]2C[C@@H](CO)[C@H](O)[C@@H]2O)cc1I [β-L-GH]	> 100 µM	19.7%	> 100 µM	−52.1%	> 100 µM	27.0%	–	–	–	–	–	–
Nc1nc(=O)n(C2CSC(CO)O2)cc1F [β-L-JB]	–	–	–	–	–	–	−0.90	3.65	2.45	3.65	4.55	1.20
OC[C@@H]1O[C@H](n2cnc3c(Cl)ncnc32)CS1 [β-L-KA]	–	–	–	–	–	–	−0.74	4.10	3.69	4.10	4.84	0.42
Nc1nc(F)nc2c1ncn2[C@@H]1CS[C@H](CO)O1 [β-L-KC]	–	–	–	–	–	–	−0.16	1.19	3.54	2.73	1.35	−0.81
